Measured values from US10745401B2, “Condensed lactam derivative” (Sumitomo Dainippon Pharma Co., Ltd., priority 2018, dated 2020).

Tests used:
human 5-HT1A receptor [1] = biological target: T1, human 5-HT1A receptor (Homo sapiens (Human), UniProt P08908); test: Test 1: binding activity for human 5-HT1A receptor ([3H]8-OH-DPAT, CHO cell membrane fraction)
Method in brief: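 Membranes incubated with [3H]8-OH-DPAT and compound for 60 min at room temperature, then filtered on polyethylenimine-coated glass-fibre plates and counted by liquid scintillation. IC50 from Hill analysis; Ki = IC50/(1+S/Kd), Kd from saturation binding on the same membranes.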

human 5-HT2A receptor [2] = biological target: T2, human 5-HT2A receptor (Homo sapiens (Human), UniProt P28223); test: Test 1: binding activity for human 5-HT2A receptor ([3H]Ketanserin, CHO cell membrane fraction)
Experimental: Test 1: Evaluation of Binding Activity for Human 5-HT1A Receptor, Human 5-HT2A Receptor, and Human D2 Receptor
Binding affinity of the present compound for human 5-HT1A receptor, human 5-HT2A receptor, and human D2 receptor was measured by the following procedures.
Each mixture was incubated at room temperature for 60 minutes. Then, the mixture was added quickly on a glassfiber filter plate (Multiscreen FB, Millipore, Inc.) coated with 0.3% aqueous polyethylenimine, and vacuum-filtered. Radioactivity remaining on the filter was measured with a liquid scintillation counter (PerkinElmer, Inc.). Binding inhibition rate was calculated from the following formula.
Ki of each compound was calculated from the following formula. Binding inhibition constant (Ki)=IC50/(1+S/Kd) wherein S is concentration of ligand; Kd is a binding dissociation constant of ligand to membrane, which is calculated from a saturated binding experiment conducted with the same cell membrane. A small Ki value means strong binding ability to a receptor.

human D2 receptor = human D2 receptor (Homo sapiens (Human), UniProt P14416); test: Test 1: binding activity for human D2 receptor ([3H]Spiperone, CHO cell membrane fraction); settings: for Ki: human D2 receptor, [3H]Spiperone; for D2 Ki/5-HT1A Ki / D2 Ki/5-HT2A Ki: selectivity ratio
Method in brief: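 Compound displacement of [3H]ketanserin at 5-HT2A or [3H]spiperone at D2 was measured in CHO membrane fractions after 60 min at room temperature, with filtration and scintillation counting. IC50 was converted to Ki by Cheng–Prusoff using ligand concentration and Kd from saturation binding.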

human 5-HT1A receptor [3] = biological target: T1, human 5-HT1A receptor; test: Test 2: agonist activity for human 5-HT1A receptor ([35S]GTPγS binding); type: biochemical; settings: for EC50: [35S]GTPγS binding, concentration at which half the activity of Emax was obtained; for Emax at 10 µM: agonist activity in the presence of 10 μM of compound, relative to 100 μmol/L 5-HT
Method in brief: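 [35S]GTPγS binding read-out: after 60 min at room temperature with test compound in GDP buffer, human 5-HT1A receptor CHO membranes were vacuum-filtered and retained radioactivity scintillation-counted. Agonist activity calculated by formula.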

human 5-HT2A receptor [4] = biological target: T2, human 5-HT2A receptor; test: Test 3: antagonist activity for human 5-HT2A receptor (aequorin luminescence, CHO-K1 cells); type: cell-based; settings: CHO-K1 cells, 1 nmol/L 5-HT
Experimental: Test 3: Evaluation of Antagonist Activity for Human 5-HT2A Receptor
Aequorin, Gα16 protein, and each receptor were transiently expressed in CHO-K1 cells (Chinese hamster ovary). […] Each compound dissolved in DMSO was added thereto, and changes in luminescence were measured by FDSS/μCELL functional drug screening system (Hamamatsu Photonics K.K.). Antagonist activity was calculated from the following formula. Antagonist activity (%)=100×{(Luminescence of well in the presence of 1 nmol/L 5-HT−Luminescence of well containing solvent)−(Luminescence of well in the presence of test compound and 1 nmol/L 5-HT−Luminescence of well containing solvent)}/(Luminescence of well in the presence of 1 nmol/L 5-HT−Luminescence of well containing solvent)

hERG channel = hERG channel (Homo sapiens (Human), UniProt Q12809); test: Test 6-1: inhibitory activity for hERG channel (auto patch clamp, Qpatch); type: cell-based; settings: for IC50: whole cell auto patch clamp, hERG-CHO cells, read-out: hERG inhibition IC50
Method in brief: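 Whole-cell patch clamp on an automated system using CHO cells stably expressing human hERG (IKr); 15 s pulse interval. Four increasing compound concentrations applied cumulatively; mean peak tail current from last 3 stimulations per concentration used. IC50 from inhibition versus pre-compound current, fitted by Hill equation.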

[5] = Test 4: metabolic stability test in human hepatic microsome; type: in vitro ADME; settings: 0.1 mg/mL microsome, 0.1 μmol/L compound, 37° C., 30 minutes
Method in brief: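 LC-MS quantified remaining parent after 30 min, 37° C, in pH 7.4 25 mmol/L phosphate containing 0.1 mg/mL human hepatic microsomes, 3.2 mmol/L NADPH and 0.1 μmol/L test compound. Value given as −LN(residual ratio)/30/0.1, mL/min/mg protein.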

Chain of human D2 receptor (P14416 whole entry): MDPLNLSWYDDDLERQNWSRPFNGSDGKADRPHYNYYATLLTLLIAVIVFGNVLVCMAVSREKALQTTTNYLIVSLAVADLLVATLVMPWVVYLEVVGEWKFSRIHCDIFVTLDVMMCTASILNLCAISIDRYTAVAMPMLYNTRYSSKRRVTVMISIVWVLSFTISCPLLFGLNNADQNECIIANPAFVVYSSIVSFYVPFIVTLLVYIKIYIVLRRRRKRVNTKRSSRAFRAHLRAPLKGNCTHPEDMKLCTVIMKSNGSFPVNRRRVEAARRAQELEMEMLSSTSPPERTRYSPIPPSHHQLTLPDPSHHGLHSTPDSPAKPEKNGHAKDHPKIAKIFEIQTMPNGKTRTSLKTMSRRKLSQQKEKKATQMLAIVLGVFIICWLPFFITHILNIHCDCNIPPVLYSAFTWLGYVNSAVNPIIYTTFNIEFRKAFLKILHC
T2 sequence (P28223 whole entry): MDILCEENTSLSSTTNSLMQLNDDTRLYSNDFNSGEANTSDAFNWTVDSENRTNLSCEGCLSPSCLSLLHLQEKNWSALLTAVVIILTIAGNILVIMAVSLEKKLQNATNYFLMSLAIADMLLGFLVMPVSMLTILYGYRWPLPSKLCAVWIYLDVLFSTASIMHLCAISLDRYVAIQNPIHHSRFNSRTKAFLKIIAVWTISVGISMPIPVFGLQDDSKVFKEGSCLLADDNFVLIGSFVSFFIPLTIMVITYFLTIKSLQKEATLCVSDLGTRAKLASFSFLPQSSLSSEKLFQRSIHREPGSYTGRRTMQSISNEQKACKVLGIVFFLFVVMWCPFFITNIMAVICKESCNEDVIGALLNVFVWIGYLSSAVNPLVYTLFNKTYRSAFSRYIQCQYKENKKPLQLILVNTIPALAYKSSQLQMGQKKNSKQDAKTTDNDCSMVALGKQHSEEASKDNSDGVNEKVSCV
T1 sequence (P08908 whole entry): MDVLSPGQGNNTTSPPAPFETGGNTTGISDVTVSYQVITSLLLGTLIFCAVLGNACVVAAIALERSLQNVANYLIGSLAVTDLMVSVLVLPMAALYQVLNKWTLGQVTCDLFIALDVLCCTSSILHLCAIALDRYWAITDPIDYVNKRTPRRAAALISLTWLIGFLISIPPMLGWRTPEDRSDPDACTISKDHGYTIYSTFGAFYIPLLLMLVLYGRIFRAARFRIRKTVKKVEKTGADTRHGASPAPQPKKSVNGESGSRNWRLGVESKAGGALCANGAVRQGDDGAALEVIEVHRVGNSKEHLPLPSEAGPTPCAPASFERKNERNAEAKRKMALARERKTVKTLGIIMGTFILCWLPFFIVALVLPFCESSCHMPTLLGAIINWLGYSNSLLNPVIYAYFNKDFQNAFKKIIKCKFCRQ
Chain of hERG channel (Q12809 whole entry): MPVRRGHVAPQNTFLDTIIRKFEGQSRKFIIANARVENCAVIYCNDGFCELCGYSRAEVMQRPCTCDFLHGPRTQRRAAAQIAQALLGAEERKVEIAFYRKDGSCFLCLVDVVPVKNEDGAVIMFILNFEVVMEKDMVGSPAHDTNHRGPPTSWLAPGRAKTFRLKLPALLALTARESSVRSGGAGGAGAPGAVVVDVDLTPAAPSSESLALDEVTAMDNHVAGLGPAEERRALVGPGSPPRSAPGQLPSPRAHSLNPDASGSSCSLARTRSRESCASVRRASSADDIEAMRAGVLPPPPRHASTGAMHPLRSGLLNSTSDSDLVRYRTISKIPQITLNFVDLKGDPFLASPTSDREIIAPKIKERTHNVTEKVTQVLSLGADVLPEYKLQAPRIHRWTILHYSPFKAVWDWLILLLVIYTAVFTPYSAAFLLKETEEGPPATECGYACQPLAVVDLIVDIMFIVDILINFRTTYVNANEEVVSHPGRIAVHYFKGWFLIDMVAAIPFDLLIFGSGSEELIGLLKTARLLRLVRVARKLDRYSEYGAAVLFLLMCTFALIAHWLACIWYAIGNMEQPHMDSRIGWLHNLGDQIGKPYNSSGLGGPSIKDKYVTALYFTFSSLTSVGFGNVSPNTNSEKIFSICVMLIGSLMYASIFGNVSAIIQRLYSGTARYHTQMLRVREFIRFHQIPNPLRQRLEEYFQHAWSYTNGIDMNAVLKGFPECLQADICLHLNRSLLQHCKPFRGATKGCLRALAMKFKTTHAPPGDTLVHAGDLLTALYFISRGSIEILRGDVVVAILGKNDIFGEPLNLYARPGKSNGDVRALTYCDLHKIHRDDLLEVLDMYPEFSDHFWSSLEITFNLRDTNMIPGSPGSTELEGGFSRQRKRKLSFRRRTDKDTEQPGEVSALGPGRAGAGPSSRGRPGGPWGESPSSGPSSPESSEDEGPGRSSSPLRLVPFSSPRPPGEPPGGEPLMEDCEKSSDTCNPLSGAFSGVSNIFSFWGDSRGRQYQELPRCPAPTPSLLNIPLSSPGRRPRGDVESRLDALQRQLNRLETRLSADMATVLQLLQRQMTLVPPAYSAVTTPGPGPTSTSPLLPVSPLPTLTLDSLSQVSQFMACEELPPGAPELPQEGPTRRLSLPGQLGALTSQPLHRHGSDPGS

SMILES | Ki (human 5-HT1A receptor [1]) | Ki (human 5-HT2A receptor [2]) | Ki (human D2 receptor) | D2 Ki/5-HT1A Ki (human D2 receptor) | D2 Ki/5-HT2A Ki (human D2 receptor) | EC50 (human 5-HT1A receptor [3]) | Emax at 10 µM (human 5-HT1A receptor [3]) | IC50 (human 5-HT2A receptor [4]) | hERG inhibition IC50 (nmol/L)/5-HT1A Ki (nmol/L) (hERG channel; ratio of hERG IC50 to 5-HT1A Ki) | hERG inhibition IC50 (nmol/L)/5-HT2A Ki (nmol/L) (hERG channel; ratio of hERG IC50 to 5-HT2A Ki) | IC50 (hERG channel) | Metabolic stability in human hepatic microsome [5] | IC50 (human 5-HT2A receptor [4]; aequorin luminescence)
Cn1cnc2c1CCCN(CCN1CCC(c3noc4ccccc34)CC1)C2=O [Example 101, 5-{2-[4-(1,2-Benzoisoxazol-3-yl)piperidin-1-yl]ethyl}-1-methyl-5,6,7,8-tetrahydroimidazo[4,5-c]azepin-4(1H)-one] | 60.1 nM | 1.9 nM | 1020 nM | 17 | 538 | 612 nM | 47% | 46 nM | 68 | 2165 | 4100 nM |  | 
Cc1noc2c1C(=O)N(CCN1CCC(c3noc4ccccc34)CC1)CCC2 [Example 38] | 13.5 nM | 4.44 nM |  |  |  | 395 nM | 56% | 24 nM |  |  | 500 nM | 0.136 mL/min/mg protein | 
O=C1c2ncccc2CCC1CCN1CCC(c2noc3ccccc23)CC1 (centres unmarked) [Example 24] | 13.2 nM | 3.55 nM |  |  |  | 63.2 nM | 31% | 33 nM |  |  | 400 nM | 0.018 mL/min/mg protein | 
O=C1c2cccnc2CCN1CCN1CCC(c2noc3cc(F)ccc23)CC1 [Example 121] | 60.9 nM | 105 nM |  |  |  |  |  |  |  |  | < 300 nM | <0.05 mL/min/mg protein | 57.4 nM
O=C1c2cnccc2CCN1CCN1CCN(c2nsc3ccccc23)CC1 [Example 18] | 10.6 nM | 3.7 nM |  |  |  | 18 nM | 90% | 36 nM |  |  | 5900 nM | 0.124 mL/min/mg protein | 
COc1ccc2c(C3CCN(CCN4CCc5cccnc5C4=O)CC3)noc2c1 [Example 149] | 184 nM | 217 nM | > 10000 nM | >54.3 | >46.1 | 719 nM | 16% |  |  |  |  |  | 267 nM
Cn1cnc2c1C(=O)N(CCN1CCN(c3nsc4ccccc34)CC1)CC2 [Example 56] | 78 nM | 0.11 nM |  |  |  | 66.6 nM | 58% | 6 nM |  |  | 7600 nM | 0.195 mL/min/mg protein | 
Cc1cc2ccn(CCN3CCN(c4noc5ccccc45)CC3)c(=O)c2cn1 [Example 113, 2-{2-[4-(1,2-Benzoisoxazol-3-yl)piperazin-1-yl]ethyl}-6-methyl-2,7-naphthyridin-1(2H)-one] | 14.4 nM | 3.7 nM |  |  |  | 16 nM | 67% | 8.63 nM |  |  | 7000 nM | 0.079 mL/min/mg protein | 
O=C1c2ncccc2CCN1CCN1CCC(c2noc3cccc(F)c23)CC1 [Example 141] | 4.16 nM | 173 nM | > 10000 nM | >2405.7 | >57.8 | 30 nM | 44% |  |  |  |  |  | 976 nM
Cn1ncc2c1CCC(CCN1CCC(c3noc4ccccc34)CC1)C2=O (centres unmarked) [Example 28] | 13.8 nM | 1.4 nM |  |  |  | 7.59 nM | 94% | 9.8 nM |  |  | 1400 nM | 0.017 mL/min/mg protein | 
Cc1cccc2c(C3CCN(CCN4CCc5cccnc5C4=O)CC3)noc12 [Example 120] | 340 nM | 91 nM | > 10000 nM |  |  | 630 nM |  |  |  |  |  |  | 912 nM
Cn1ncc2c1C(=O)N(CCN1CCN(c3nsc4ccccc34)CC1)CCC2 [Example 47] | 16.9 nM | 17.9 nM |  |  |  | 92.2 nM | 65% | 4.96 nM |  |  | 4000 nM | 0.418 mL/min/mg protein | 
Cc1ncc2c(=O)n(CCN3CCN(c4noc5ccccc45)CC3)ccc2n1 [Example 193, 6-{2-[4-(1,2-Benzoisoxazol-3-yl)piperazin-1-yl]ethyl}-2-methylpyrido[4,3-d]pyrimidin-5(6H)-one] | 387 nM | 122 nM | > 10000 nM | >25.8 | >81.7 | 756 nM | 27% |  |  |  |  |  | 143 nM
O=C1c2ncccc2CCN1CCN1CCN(c2noc3ccccc23)CC1 [Example 1, 7-{2-[4-(1,2-Benzoisoxazol-3-yl)piperazin-1-yl]ethyl}-6,7-dihydro-1,7-naphthyridin-8(5H)-one] | 21.5 nM | 49 nM |  |  |  | 94.7 nM | 50% | 44.6 nM |  |  | > 10000 nM | <0.01 mL/min/mg protein | 
CC(C)c1ncc2c(n1)CCN(CCN1CCN(c3nsc4ccccc34)CC1)C2=O [Example 180] | 32.2 nM | 4.28 nM | 1560 nM | 48.3 | 363.5 | 1260 nM | 37% |  |  |  |  | 0.469 mL/min/mg protein | 72.7 nM
O=c1c2cncnc2ccn1CCN1CCC(c2noc3ccccc23)CC1 [Example 129] | 51.4 nM | 20 nM |  |  |  | 370 nM | 31% |  |  |  |  | 0.084 mL/min/mg protein | 61.8 nM
